Assay results: ChEMBL document CHEMBL4507327 (2021)
pIC50: −log10 of the molar value. Blank lines part the entries; values can stand above or below the molecule they belong to.

What was measured:
[1] = target: T1, Muscarinic acetylcholine receptor M1 (Homo sapiens) (UniProt P11229); settings: Compound concentration 10.0 uM
T1 sequence (whole entry): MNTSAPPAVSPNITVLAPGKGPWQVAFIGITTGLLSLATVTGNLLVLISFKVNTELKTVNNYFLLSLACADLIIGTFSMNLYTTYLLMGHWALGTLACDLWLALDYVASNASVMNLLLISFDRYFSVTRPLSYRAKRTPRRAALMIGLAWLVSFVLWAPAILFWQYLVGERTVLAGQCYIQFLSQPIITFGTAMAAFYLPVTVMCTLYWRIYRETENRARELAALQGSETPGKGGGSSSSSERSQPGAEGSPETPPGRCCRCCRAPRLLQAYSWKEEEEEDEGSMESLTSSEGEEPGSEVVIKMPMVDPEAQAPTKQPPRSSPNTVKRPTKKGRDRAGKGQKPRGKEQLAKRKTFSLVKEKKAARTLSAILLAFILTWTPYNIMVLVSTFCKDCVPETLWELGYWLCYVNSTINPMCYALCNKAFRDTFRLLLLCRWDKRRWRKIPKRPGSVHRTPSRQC

[2] = target: Histamine H1 receptor (Homo sapiens) (UniProt P35367); settings: Compound concentration 10.0 uM
Sequence of Histamine H1 receptor (Homo sapiens) (P35367 whole entry): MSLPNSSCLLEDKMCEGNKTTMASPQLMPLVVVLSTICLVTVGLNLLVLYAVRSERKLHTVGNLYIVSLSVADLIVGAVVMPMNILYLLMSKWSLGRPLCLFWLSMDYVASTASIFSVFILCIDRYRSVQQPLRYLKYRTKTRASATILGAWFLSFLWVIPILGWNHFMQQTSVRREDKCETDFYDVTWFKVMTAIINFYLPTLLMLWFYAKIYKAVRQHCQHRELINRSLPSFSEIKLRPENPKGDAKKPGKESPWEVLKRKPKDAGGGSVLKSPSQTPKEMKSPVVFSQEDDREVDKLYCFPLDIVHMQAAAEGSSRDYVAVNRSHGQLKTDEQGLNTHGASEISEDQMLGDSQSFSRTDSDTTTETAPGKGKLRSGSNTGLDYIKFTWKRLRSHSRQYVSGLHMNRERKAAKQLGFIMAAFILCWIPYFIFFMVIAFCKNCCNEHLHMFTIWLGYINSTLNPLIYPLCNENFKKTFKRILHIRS

[3] = target: Alpha-2B adrenergic receptor (Homo sapiens) (UniProt P18089); settings: Compound concentration 10.0 uM
[4] = target: 5-hydroxytryptamine receptor 2A (Homo sapiens) (UniProt P28223); settings: Compound concentration 10.0 uM
[5] = target: Endothelin-1 receptor (Homo sapiens) (UniProt P25101); settings: Compound concentration 10.0 uM
[6] = target: T2, 5-hydroxytryptamine receptor 1A (Homo sapiens) (UniProt P08908); settings: Compound concentration 10.0 uM
T2 sequence (whole entry): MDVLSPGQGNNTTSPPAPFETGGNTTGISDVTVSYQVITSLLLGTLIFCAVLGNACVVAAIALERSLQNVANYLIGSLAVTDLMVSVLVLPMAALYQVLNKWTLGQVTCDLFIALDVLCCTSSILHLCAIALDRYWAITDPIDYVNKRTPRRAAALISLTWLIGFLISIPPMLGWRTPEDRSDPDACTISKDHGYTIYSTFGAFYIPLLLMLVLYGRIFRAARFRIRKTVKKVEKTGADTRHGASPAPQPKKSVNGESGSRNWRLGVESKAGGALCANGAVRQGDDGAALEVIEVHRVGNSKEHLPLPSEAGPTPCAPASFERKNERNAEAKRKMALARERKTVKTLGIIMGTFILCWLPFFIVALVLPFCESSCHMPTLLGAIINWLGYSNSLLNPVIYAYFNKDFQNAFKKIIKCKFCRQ

[7] = target: Alpha-2A adrenergic receptor (Homo sapiens) (UniProt P08913); settings: Compound concentration 10.0 uM
[8] = target: 5-hydroxytryptamine receptor 6 (Homo sapiens) (UniProt P50406); settings: Compound concentration 10.0 uM
Sequence of 5-hydroxytryptamine receptor 6 (Homo sapiens) (P50406 whole entry): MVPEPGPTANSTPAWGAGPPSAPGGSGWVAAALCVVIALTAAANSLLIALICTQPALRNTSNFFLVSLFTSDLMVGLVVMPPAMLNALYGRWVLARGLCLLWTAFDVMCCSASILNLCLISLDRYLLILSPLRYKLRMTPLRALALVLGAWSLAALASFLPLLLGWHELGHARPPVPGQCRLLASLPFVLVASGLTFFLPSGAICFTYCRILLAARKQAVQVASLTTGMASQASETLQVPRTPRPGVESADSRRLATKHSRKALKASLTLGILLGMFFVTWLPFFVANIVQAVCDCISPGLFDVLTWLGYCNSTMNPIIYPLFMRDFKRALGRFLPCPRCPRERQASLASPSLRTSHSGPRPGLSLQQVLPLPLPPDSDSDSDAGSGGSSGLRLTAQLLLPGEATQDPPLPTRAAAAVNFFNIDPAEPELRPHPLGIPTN

[9] = target: T3, Muscarinic acetylcholine receptor M2 (Homo sapiens) (UniProt P08172); settings: Compound concentration 10.0 uM
T3 sequence (whole entry): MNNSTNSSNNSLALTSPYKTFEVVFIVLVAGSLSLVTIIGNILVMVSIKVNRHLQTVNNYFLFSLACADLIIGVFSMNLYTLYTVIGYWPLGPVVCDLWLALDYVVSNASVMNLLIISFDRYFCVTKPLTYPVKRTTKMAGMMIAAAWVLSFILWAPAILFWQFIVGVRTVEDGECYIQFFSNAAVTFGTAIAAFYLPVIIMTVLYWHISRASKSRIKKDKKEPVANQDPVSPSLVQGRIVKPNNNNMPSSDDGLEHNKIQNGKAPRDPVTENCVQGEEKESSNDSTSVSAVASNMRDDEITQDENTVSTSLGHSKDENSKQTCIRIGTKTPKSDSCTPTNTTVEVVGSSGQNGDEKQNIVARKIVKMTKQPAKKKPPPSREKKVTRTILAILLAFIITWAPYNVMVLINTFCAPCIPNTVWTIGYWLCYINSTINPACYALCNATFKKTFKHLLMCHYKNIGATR

[10] = target: Mitogen-activated protein kinase kinase kinase kinase 4 (Homo sapiens, UniProt O95819); experiment: HGK [ZC1(M4K4CGP1)] Takeda global kinase panel
[11] = target: Sodium-dependent serotonin transporter (Homo sapiens) (UniProt P31645); settings: Compound concentration 10.0 uM
[12] = target: D(2) dopamine receptor (Homo sapiens) (UniProt P14416); settings: Compound concentration 10.0 uM
[13] = target: D(1B) dopamine receptor (Homo sapiens) (UniProt P21918); settings: Compound concentration 10.0 uM
[14] = target: Receptor-interacting serine/threonine-protein kinase 4 (Homo sapiens, UniProt P57078); experiment: ANKRD3(RIP4LGN1) Takeda global kinase panel
Sequence of Receptor-interacting serine/threonine-protein kinase 4 (P57078 whole entry): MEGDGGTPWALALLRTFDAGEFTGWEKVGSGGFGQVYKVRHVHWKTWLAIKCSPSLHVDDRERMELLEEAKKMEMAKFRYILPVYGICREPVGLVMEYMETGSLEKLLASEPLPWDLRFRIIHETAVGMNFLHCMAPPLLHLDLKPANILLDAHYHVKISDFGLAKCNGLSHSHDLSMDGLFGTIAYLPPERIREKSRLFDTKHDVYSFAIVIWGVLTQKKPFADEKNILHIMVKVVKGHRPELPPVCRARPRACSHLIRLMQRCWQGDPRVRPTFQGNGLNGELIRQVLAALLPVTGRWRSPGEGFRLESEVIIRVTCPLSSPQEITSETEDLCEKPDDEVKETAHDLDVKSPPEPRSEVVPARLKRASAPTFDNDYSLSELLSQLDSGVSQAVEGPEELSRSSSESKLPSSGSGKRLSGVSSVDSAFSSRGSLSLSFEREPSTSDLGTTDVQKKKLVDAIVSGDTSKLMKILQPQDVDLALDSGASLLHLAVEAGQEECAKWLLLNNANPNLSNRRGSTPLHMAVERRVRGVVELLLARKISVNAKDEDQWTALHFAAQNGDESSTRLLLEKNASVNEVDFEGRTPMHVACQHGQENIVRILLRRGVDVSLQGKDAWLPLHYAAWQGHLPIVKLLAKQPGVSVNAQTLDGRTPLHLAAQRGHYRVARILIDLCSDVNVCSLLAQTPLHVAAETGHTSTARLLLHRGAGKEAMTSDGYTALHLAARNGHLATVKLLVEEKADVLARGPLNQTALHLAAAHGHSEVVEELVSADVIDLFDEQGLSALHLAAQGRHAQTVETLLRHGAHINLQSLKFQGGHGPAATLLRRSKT

[15] = target: Calcium/calmodulin-dependent protein kinase type II subunit gamma (Homo sapiens, UniProt Q13555); experiment: CaMK2gamma(CA2GLGT5) Takeda global kinase panel
[16] = target: Calcium/calmodulin-dependent protein kinase type 1D (Homo sapiens, UniProt Q8IU85); experiment: CaMK1delta(CA1DLGT5) Takeda global kinase panel
[17] = target: Calcium/calmodulin-dependent protein kinase kinase 1 (Homo sapiens, UniProt Q8N5S9); experiment: CAMKK1(CAK1LGT5) Takeda global kinase panel
[18] = target: Fibroblast growth factor receptor 1 (Homo sapiens, UniProt P11362); experiment: FGFR1(FGF1LGF1) Takeda global kinase panel
Sequence of Fibroblast growth factor receptor 1 (P11362 whole entry): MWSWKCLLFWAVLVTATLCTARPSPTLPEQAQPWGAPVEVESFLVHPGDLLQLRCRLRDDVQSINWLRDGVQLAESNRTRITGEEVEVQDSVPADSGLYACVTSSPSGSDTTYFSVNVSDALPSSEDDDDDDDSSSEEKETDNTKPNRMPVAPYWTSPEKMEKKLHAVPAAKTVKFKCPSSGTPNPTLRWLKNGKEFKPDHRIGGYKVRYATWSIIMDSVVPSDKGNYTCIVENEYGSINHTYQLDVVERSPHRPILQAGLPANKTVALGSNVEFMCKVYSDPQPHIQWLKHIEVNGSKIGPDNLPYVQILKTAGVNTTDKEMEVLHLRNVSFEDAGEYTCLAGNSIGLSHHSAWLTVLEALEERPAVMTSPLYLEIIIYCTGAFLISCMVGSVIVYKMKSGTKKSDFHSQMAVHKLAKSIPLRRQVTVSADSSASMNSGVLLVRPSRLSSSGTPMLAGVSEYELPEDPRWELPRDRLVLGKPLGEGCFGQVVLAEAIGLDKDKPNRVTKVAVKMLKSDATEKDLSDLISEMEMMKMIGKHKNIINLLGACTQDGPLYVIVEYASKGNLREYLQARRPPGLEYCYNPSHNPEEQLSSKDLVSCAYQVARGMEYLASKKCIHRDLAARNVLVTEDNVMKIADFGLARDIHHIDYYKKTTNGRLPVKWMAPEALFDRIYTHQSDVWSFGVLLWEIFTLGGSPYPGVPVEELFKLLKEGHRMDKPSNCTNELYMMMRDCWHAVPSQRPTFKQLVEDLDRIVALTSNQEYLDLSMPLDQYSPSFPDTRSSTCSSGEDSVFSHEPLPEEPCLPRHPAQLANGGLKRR

[19] = target: Tyrosine-protein kinase JAK2 (Homo sapiens, UniProt O60674); experiment: JAK2(JAK2LGF1) Takeda global kinase panel
[20] = target: Calcium/calmodulin-dependent protein kinase type II subunit delta (Homo sapiens, UniProt Q13557); experiment: CaMK2delta(CA2DCGT1) Takeda global kinase panel
Sequence of Calcium/calmodulin-dependent protein kinase type II subunit delta (Q13557 whole entry): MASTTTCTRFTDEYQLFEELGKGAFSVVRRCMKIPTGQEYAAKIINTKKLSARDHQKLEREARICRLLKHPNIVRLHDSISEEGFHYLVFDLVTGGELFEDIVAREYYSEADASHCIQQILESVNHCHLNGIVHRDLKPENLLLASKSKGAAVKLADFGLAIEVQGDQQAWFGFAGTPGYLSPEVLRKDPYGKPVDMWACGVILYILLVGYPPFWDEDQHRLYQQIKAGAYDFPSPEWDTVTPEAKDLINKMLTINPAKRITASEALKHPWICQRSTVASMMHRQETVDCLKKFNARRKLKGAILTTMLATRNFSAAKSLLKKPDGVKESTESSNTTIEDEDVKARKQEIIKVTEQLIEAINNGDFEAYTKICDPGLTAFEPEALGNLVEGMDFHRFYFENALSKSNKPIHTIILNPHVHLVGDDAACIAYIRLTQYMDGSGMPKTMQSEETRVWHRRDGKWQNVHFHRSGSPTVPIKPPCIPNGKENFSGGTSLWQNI

[21] = target: Glycogen synthase kinase-3 alpha (Homo sapiens, UniProt P49840); experiment: GSK3alpha(GS3ALGK1) Takeda global kinase panel
Sequence of Glycogen synthase kinase-3 alpha (P49840 whole entry): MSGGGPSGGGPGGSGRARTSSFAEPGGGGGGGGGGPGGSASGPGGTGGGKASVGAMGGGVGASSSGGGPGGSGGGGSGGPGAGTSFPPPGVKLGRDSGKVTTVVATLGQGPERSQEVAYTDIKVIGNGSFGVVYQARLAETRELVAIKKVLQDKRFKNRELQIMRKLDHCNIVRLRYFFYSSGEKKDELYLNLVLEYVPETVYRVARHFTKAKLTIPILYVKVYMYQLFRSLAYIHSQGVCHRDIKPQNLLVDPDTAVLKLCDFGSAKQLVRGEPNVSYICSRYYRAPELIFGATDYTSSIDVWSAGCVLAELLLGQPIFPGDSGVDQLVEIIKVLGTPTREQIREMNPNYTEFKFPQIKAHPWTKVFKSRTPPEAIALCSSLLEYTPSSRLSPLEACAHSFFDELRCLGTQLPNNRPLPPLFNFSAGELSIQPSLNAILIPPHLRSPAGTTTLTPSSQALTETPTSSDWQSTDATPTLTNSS

[22] = target: Cyclin-dependent kinase-like 1 (Homo sapiens, UniProt Q00532); experiment: CDKL1(CDL1LGT1) Takeda global kinase panel
Sequence of Cyclin-dependent kinase-like 1 (Q00532 whole entry): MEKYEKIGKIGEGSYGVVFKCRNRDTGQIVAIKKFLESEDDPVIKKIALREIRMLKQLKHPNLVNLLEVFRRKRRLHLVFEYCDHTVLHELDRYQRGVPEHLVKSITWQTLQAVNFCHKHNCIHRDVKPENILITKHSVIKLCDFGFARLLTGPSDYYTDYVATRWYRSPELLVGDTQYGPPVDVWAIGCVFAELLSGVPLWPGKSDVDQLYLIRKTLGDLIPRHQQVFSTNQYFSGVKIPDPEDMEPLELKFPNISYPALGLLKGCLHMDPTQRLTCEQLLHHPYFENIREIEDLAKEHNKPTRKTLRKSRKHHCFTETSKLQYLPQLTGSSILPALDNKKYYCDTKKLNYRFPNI

[23] = target: RAC-alpha serine/threonine-protein kinase (Homo sapiens, UniProt P31749); experiment: Akt1 [PKBalpha(AKT1PHFB)] Takeda global kinase panel
Misshapen-like kinase 1 = Misshapen-like kinase 1 (Homo sapiens, UniProt Q8N4C8); experiment: MINK [ZC3(MIN1LGF1)] Takeda global kinase panel
[24] = target: Proto-oncogene tyrosine-protein kinase receptor Ret (Homo sapiens, UniProt P07949); experiment: Ret(RET1LGF1) Takeda global kinase panel
[25] = target: cAMP-dependent protein kinase catalytic subunit alpha (Homo sapiens, UniProt P17612); experiment: PKAalpha(PRCALGH1) Takeda global kinase panel
[26] = target: Tyrosine-protein kinase receptor TYRO3 (Homo sapiens, UniProt Q06418); experiment: Tyro3 [Sky(TYR3LGY1)] Takeda global kinase panel
Sequence of Tyrosine-protein kinase receptor TYRO3 (Q06418 whole entry): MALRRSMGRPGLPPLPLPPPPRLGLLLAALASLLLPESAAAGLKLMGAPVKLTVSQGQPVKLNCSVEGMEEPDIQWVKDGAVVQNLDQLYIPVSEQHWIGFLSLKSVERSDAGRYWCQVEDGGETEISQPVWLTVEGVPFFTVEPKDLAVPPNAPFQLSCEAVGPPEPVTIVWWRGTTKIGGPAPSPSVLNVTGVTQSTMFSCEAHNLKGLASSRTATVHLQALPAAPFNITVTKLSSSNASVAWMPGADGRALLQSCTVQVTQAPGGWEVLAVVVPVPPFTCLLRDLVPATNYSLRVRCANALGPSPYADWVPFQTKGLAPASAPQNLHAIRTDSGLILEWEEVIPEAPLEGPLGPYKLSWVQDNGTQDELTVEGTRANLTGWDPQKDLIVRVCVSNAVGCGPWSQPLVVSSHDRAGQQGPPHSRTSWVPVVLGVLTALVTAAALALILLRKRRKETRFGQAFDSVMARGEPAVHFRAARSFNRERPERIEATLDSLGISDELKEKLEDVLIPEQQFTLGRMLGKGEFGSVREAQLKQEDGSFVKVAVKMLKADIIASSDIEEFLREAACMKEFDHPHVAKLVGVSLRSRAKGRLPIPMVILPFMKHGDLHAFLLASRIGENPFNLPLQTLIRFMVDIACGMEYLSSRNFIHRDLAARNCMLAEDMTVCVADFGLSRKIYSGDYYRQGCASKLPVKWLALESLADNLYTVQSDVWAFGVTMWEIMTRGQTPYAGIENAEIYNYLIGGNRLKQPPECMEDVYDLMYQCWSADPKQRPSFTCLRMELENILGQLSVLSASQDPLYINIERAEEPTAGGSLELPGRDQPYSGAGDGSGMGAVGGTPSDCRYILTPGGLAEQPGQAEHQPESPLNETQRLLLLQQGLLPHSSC

SMILES: CN1C(=O)[C@@H](N2CCc3cn(Cc4ccccc4)nc3C2=O)COc2ccccc21 [TP-030-1]
inhibition [1]: 0.6%
inhibition [2]: 20.5%
inhibition [3]: 43.3%
inhibition [4]: 3.8%
inhibition [5]: -5%
inhibition [6]: 5.07%
inhibition [7]: 7%
inhibition [8]: -3.95%
inhibition [9]: -4.37%
pIC50 [10]: 6.00
inhibition [11]: 5.99%
inhibition [12]: -5.46%
inhibition [13]: 1.77%

pIC50 [14]: 6.00
pIC50 [15]: 6.00
pIC50 [16]: 6.00
pIC50 [17]: 6.00
pIC50 [18]: 6.00
pIC50 [19]: 6.00
pIC50 [20]: 6.00
pIC50 [21]: 6.00
pIC50 [22]: 6.00
pIC50 [23]: 6.00
pIC50 (Misshapen-like kinase 1): 6.00
pIC50 [24]: 6.00
pIC50 [25]: 6.00
pIC50 [26]: 6.00
SMILES: CN1C(=O)[C@@H](N2CCc3cn(CC4CCS(=O)(=O)CC4)nc3C2=O)COc2ccccc21 [TP-030n]
